The values that follow are results of earlier work, collected in patent publication US7064109B2, “Pharmaceutical composition based on macrolides for topical application in ophthalmology” (priority 2001, dated 2006).

The data set relates to all sensitive microorganisms.

The structures appear in SMILES notation.

As for `CC[C@H]1OC(=O)[C@H](C)[C@@H](O[C@H]2C[C@@](C)(OC)[C@@H](O)[C@H](C)O2)[C@H](C)[C@@H](O[C@@H]2O[C@H](C)C[C@H](N(C)C)[C@H]2O)[C@](C)(O)C[C@@H](C)CN(C)[C@H](C)[C@@H](O)[C@]1(C)O` [azithromycin, N-methyl-11-aza-10-deoxo-10-dihydroerythromycin], the “minimum level for eliminating microorganisms” value (conjunctival level) was 0.25 µg/g. The minimum inhibitory concentration (minimum concentration for therapeutic effectiveness in the eyes, all sensitive microorganisms) was 0.5 µg/g.
